Assay results taken from US9781928B2, “Microbicidal composition” (Dow Global Technologies LLC, priority 2016, dated 2017).

System: Desulfovibrio longus ATCC 51456
Experiment: Biocidal efficacy (bacterial kill) and synergy of glutaraldehyde and surfactants against anaerobic sulfate-reducing bacteria
Format: cell-based
Details: 35° C., 10^6 to 10^7 CFU/mL, salt solution
Description: Surfactants and biocides were evaluated for synergy by determining the synergy index (S.I.) of the combination. Synergy index was calculated based on the concentration required to achieve a certain level of bacterial kill when the two antimicrobial compounds (A and B) alone and in combinations. The test organism was anaerobic sulfate-reducing bacteria Desulfovibrio longus ATCC #51456. Surf. A R^1O(CH2CH(CH3)O)5(CH2CH2O)6H Surf. B R^1O(CH2CH(CH3)O)5(CH2CH2O)9H where R^1 is 2-ethylhexyl.
Inside an anaerobic chamber (Bactron anaerobic chamber), a deoxygenated sterile salt solution (3.1183 g of NaCl, 1.3082 mg of NaHCO3, 47.70 mg of KCl, 72.00 mg of CaCl2, 54.49 mg of MgSO4, 172.28 mg of Na2SO4, 43.92 mg of Na2CO3 in 1 L water) was inoculated with Desulfovibrio longus ATCC 51456 to a final bacterial concentration of 10^6 to 10^7 CFU/mL. Aliquots of this cell suspension were then treated with glutaraldehyde, and each of Surf A and B at selected active concentrations. After incubation at 35° C. for 2 hours, viable bacteria in the aliquots were enumerated using serial dilution method.
SI is calculated as follows: Ca/CA+Cb/CB=Synergy Index (“SI”)
Wherein: • Ca=Concentration of biocide A required to achieve a certain level of bacterial kill when used in combination with B • CA=Concentration of biocide A required to achieve a certain level of bacterial kill when used alone • Cb=Concentration of biocide B required to achieve a certain level of bacterial kill when used in combination with A • CB=Concentration of biocide B required to achieve a certain level of bacterial kill when used alone When the sum of Ca/CA and Cb/CB is greater than one, antagonism is indicated.

Molecule: R^1O(CH2CH(CH3)O)5(CH2CH2O)6H where R^1 is 2-ethylhexyl [Surf. A]
- Concentration (active ppm) for complete bacterial kill in 2 hours, Surf. A (Surf. A concentration alone (0:1) or in combination with Glut): >100 ppm

Molecule: O=CCCCC=O [Glut, glutaraldehyde, (1,5-pentanedial) CAS No. 111-30-8]
- Concentration (active ppm) for complete bacterial kill in 2 hours, Glut (Glut concentration alone (1:0) or in combination with Surf. A): 13.2 ppm
- Concentration (active ppm) for 99.99% bacterial kill in 2 hours, Glut (Glut concentration alone (1:0) or in combination with Surf. B): 5.9 ppm

Molecule: R^1O(CH2CH(CH3)O)5(CH2CH2O)9H where R^1 is 2-ethylhexyl [Surf. B]
- Concentration (active ppm) for 99.99% bacterial kill in 2 hours, Surf B (Surf. B concentration alone (0:1) or in combination with Glut): >100 ppm
